Values of other authors as cited in patent US7678762B2, “Methods for reducing the risk of hypoglycemia” (DiObex, Inc., priority 2002, dated 2010).

What was measured:
[1] = relative to normal glucagon
[2] = relative to normal glucagon; remark: listed apart in the source

Substance | binding affinity [1] | relative potency [2]
glucagon variant with a Phe at position 18: glucagon variant with a Phe at position 18 | 4.7% | 0.9%
variant glucagon Lys 17 and 18, Glu 21: variant glucagon with a Lys substitution at positions 17 and 18 and a Glu substitution at position 21 (Sturm et al.) (HSQGTFTSDYSKYLDSKKAQEFVQWLMNT; Glucagon; UniProt P01275 53-81, looked up, variant R17K R18K D21E) | 500% | 700%
variant glucagon amide Lys 17: variant glucagon amide with only a Lys substitution at position 17 | 220% | 230%
